Patent US8022072B2, “Azolylmethylidenehydrazine derivative and use thereof” (Kaken Pharmaceutical Co., Ltd., priority 2007, dated 2011)
≈ marks a conversion by molar mass, not a printed value.

Assays:
[1] = test system: Malassezia furfur IFO-0656; experiment: Antifungal activity evaluation test, MIC by urease activity, Malassezia furfur IFO-0656; type: cell-based; details: IFO0656, 96 h, MU medium, 30° C., day 4 or 5, urease activity of 20% or below, read-out: MIC M. fur. IFO-0656
Description: (§1) The minimum inhibitory concentration (MIC) for Trichophyton mentagrophytes, Trichophyton rubrum, and Malassezia furfur was measured according to the following procedure. • Test compound solution: A test compound was dissolved in dimethyl sulfoxide (DMSO) at a concentration of 5 mg/mL as a stock solution. […] Then, as a test medium, a fungal solution of Trichophyton species was 100-fold diluted with Sabouraud Dextrose Broth (Difco), and a fungal solution of Malassezia furfur IFO-0656 was 100-fold diluted with MU medium to give each inoculum (2×10^4 cells/mL). • Measurement of MIC of Trichophyton fungi: Sabouraud Dextrose Broth (Difco) was dispensed by 100 μL to a given well of a 96 well flat microplate. Then, a test compound solution (2 μL) was added, and the mixture was thoroughly mixed with a plate mixer. A fungal solution (100 μL) was inoculated and cultured at 30° C. for 7 days. The presence or absence of the cell growth was visually observed, and the minimum medicament concentration at which the cell growth was prevented was taken as MIC (μg/mL). • Measurement of MIC of Malassezia furfur: Since the urease activity of this fungus and the fungus growth rate are co-related, MIC was evaluated by the following method using urease activity as an index. MU medium was dispensed by 100 μL to a given well of a 96 well flat microplate. Then, a test compound solution (2 μL) was added, and the mixture was thoroughly mixed with a plate mixer. A fungal solution (100 μL) was inoculated and cultured at 30° C. The culture was stopped on day 4 or 5 of culture when the color tone of the MU medium changes from yellow to red in visual observation of the fungus growth in a well free of addition of a test substance. Then the plate was stirred until the fungus became uniform, and the urease activity was measured based on the measurement of absorbance at 550 nm using a plate reader.

[2] = test system: Trichophyton mentagrophytes KD-04; experiment: Antifungal activity evaluation test, MIC, Trichophyton mentagrophytes KD-04; type: cell-based; details: KD04, 168 h, Sabouraud Dextrose Broth, 30° C., 7 days, visual, read-out: MIC T. men. KD-04
Description: as §1

[3] = test system: Trichophyton rubrum KD-107; experiment: Antifungal activity evaluation test, MIC, Trichophyton rubrum KD-107; type: cell-based; details: KD107, 168 h, Sabouraud Dextrose Broth, 30° C., 7 days, visual, read-out: MIC T. rub. KD-107
Description: as §1

[4] = test system: Trichophyton mentagrophytes SM-110; experiment: Antifungal activity evaluation test, MIC, Trichophyton mentagrophytes SM-110; type: cell-based; details: SM110, 168 h, Sabouraud Dextrose Broth, 30° C., 7 days, visual, read-out: MIC T. men. SM-110
Description: as §1

[5] = test system: TNCB-induced dermatitis; experiment: 2,4,6-Trinitrochlorobenzene (TNCB)-induced dermatitis model, ear edema; type: in vivo, male BALB/c mouse; details: test compound 1 w/v % (FK506 0.1 w/v %), 20 μL applied to auricle, 24 hours after induction
Description: (§2) The test compound was adjusted to 1 w/v % when in use with a solvent (acetone:olive oil=1:1, v/v)) and put to use. FK506 (control substance) was adjusted to 0.1 w/v % and used.
The fur on the abdomen of male BALB/c mouse was shaved with a hair clipper, and 100 μL of 7 w/v % TNCB sensitizing liquid (solvent was acetone:olive oil=4:1, v/v) was applied. Six days after the sensitization, the thickness of the right auricle was measured with a micrometer (pre-value). After the measurement, 10 μL of 1 w/v % TNCB challenge liquid (solvent was acetone:olive oil=1:9, v/v) was applied to the inside of the right auricle to induce ear edema. About 5 minutes after the application of the challenge liquid, 20 μL of the test compound was applied to the outside of the auricle.
After 24 hours from the induction of ear edema, the thickness of the right auricle was measured by a method similar to the pre-value (post-value). The difference between the post-value and the pre-value of ear edema by each test compound was determined, based on which the inhibition rate was calculated. The activity of each test compound was calculated with the ear edema inhibition rate of FK506 as 1.0 (ear edema inhibition rate of each test compound/ear edema inhibition rate of FK506).

[6] = test system: Trichophyton rubrum KD-101; experiment: Antifungal activity evaluation test, MIC, Trichophyton rubrum KD-101; type: cell-based; details: KD101, 168 h, Sabouraud Dextrose Broth, 30° C., 7 days, visual, read-out: MIC T. rub. KD-101
Description: as §1

[7] = test system: OVA-induced dermatitis; experiment: Ovalbumin (OVA)-induced dermatitis model, ear edema; type: in vivo, male ICR mouse; design: key: ratio of compound's ear edema inhibition rate to FK506's (FK506 = 1.0); details: test compound 1 w/v % (FK506 0.1 w/v %), 20 μL applied to auricle, 24 hours after induction
Description: as §2
Male ICR mouse was sensitized by the administration of 0.2 mL of OVA-hydroxide aluminum gel suspension to the abdominal cavity. After 14 days from the sensitization, the thickness of the right auricle was measured with a micrometer (pre-value). After the measurement, 20 μL of 0.5 μg/mL OVA challenge liquid (solvent was physiological saline) was subcutaneously administered to the inside of the auricle to induce ear edema. About 5 minutes after the administration of the challenge liquid, 20 μL of the test compound was applied to the outside of the auricle. After 24 hours from the induction of ear edema, the thickness of the right auricle was measured by a method similar to the pre-value (post-value). The difference between the post-value and the pre-value of ear edema by each test compound was determined, based on which the inhibition rate was calculated. The activity of each test compound was calculated with the ear edema inhibition rate of FK506 as 1.0 (ear edema inhibition rate of each test compound/ear edema inhibition rate of FK506).

Row | SMILES | MIC [1] [µg/mL] | MIC [2] [µg/mL] | MIC [3] [µg/mL] | MIC [4] [µg/mL] | TNCB-induced dermatitis, with ear edema inhibition rate of FK506 as 1.0 [5] | MIC [6] [µg/mL] | OVA-induced dermatitis, with ear edema inhibition rate of FK506 as 1.0 [7]
1 | CN(C)N=C(c1ccccc1CCc1ccccc1)n1ccnc1 [Compound No. 6, N′-[1-imidazol-1-yl-1-(2-phenethylphenyl)methylidene]-N,N-dimethylhydrazine] | 0.78 (≈ 2.45 µM) | 0.05 (≈ 0.157 µM) | 0.05 (≈ 0.157 µM) | 0.1 (≈ 0.314 µM) | 0.7 | 0.1 (≈ 0.314 µM) | 1.4
2 | CN(C)N=C(c1ccccc1CCCOc1ccccc1)n1ccnc1 [Compound No. 9, N′-[1-imidazol-1-yl-1-[2-(3-phenoxypropyl)phenyl]methylidene]-N,N-dimethylhydrazine] | 0.2 (≈ 0.574 µM) | 0.05 (≈ 0.143 µM) | 0.05 (≈ 0.143 µM) | 0.2 (≈ 0.574 µM) | 0.7 | 0.05 (≈ 0.143 µM) | 1.2
3 | CN(C)N=C(c1ccccc1OCCCCOc1ccccc1)n1ccnc1 [Compound No. 71, N′-[1-imidazol-1-yl-1-[2-(4-phenoxybutoxy)phenyl]methylidene]-N,N-dimethylhydrazine] | 0.05 (≈ 0.132 µM) | 0.05 (≈ 0.132 µM) | 0.025 (≈ 0.0661 µM) | 0.1 (≈ 0.264 µM) | 0.9 | 0.05 (≈ 0.132 µM) | 0.9
4 | CN(C)N=C(c1sccc1OCCOc1ccccc1)n1ccnc1 [Compound No. 101, N′-[1-imidazol-1-yl-1-[3-(2-phenoxyethoxy)thiophen-2-yl]methylidene]-N,N-dimethylhydrazine] | 0.2 (≈ 0.561 µM) | 0.05 (≈ 0.14 µM) | 0.05 (≈ 0.14 µM) | 0.2 (≈ 0.561 µM) | 0.8 | 0.05 (≈ 0.14 µM) | 1.4
5 | CCN(C)N=C(c1ccccc1OCCOc1ccccc1)n1ccnc1 [Compound No. 114, N-ethyl-N′-[1-imidazol-1-yl-1-[2-(2-phenoxyethoxy)phenyl]methylidene]-N-methylhydrazine] | 0.2 (≈ 0.549 µM) | 0.2 (≈ 0.549 µM) | 0.05 (≈ 0.137 µM) | 0.39 (≈ 1.07 µM) | 0.7 | 0.1 (≈ 0.274 µM) | 0.9
6 | CCN(C)N=C(c1ccccc1OCCCOc1ccccc1)n1ccnc1 [Compound No. 115, N-ethyl-N′-[1-imidazol-1-yl-1-[2-(3-phenoxypropoxy)phenyl]methylidene]-N-methylhydrazine] |  |  |  |  | 0.7 |  | 1.4
7 | CCN(C)N=C(c1ccccc1OCCCCOc1ccccc1)n1ccnc1 [Compound No. 116, N-ethyl-N′-[1-imidazol-1-yl-1-[2-(4-phenoxybutoxy)phenyl]methylidene]-N-methylhydrazine] |  |  |  |  | 0.7 |  | 1.1
8 | CCN(CC)N=C(c1ccccc1OCCOc1ccccc1)n1ccnc1 [Compound No. 119, N,N-diethyl-N′-[1-imidazol-1-yl-1-[2-(2-phenoxyethoxy)phenyl]methylidene]hydrazine] |  |  |  |  | 0.9 |  | 1.1
9 | CCCCCOc1ccccc1C(=NN1CCCC1)n1ccnc1 [Compound No. 157, [1-imidazol-1-yl-1-(2-pentyloxyphenyl)methylidene]pyrrolidin-1-ylamine] | 0.2 (≈ 0.613 µM) | 0.05 (≈ 0.153 µM) | 0.05 (≈ 0.153 µM) | 0.1 (≈ 0.306 µM) | 0.8 | 0.05 (≈ 0.153 µM) | 1.3
10 | c1ccc(OCCOc2ccccc2C(=NN2CCCCC2)n2ccnc2)cc1 [Compound No. 175, [1-imidazol-1-yl-1-[2-(2-phenoxyethoxy)phenyl]methylidene]piperidin-1-ylamine] |  |  |  |  | 0.6 |  | 1.4
11 | CCOc1ccccc1C(=NN1CCCCCC1)n1ccnc1 [Compound No. 197, [1-(2-ethoxyphenyl)-1-imidazol-1-ylmethylidene]homopiperidin-1-ylamine] |  |  |  |  | 0.7 |  | 1.1
12 | CCCCOc1ccccc1C(=NN1CCCCCC1)n1ccnc1 [Compound No. 202, [1-(2-butoxyphenyl)-1-imidazol-1-ylmethylidene]homopiperidin-1-ylamine] |  |  |  |  | 0.7 |  | 1.0
13 | CCCCCOc1ccccc1C(=NN1CCCCCC1)n1ccnc1 [Compound No. 203, homopiperidin-1-yl-[1-imidazol-1-yl-1-(2-pentyloxyphenyl)methylidene]amine] |  |  |  |  | 0.9 |  | 1.0
14 | c1ccc(OCCOc2ccccc2C(=NN2CCCCCC2)n2ccnc2)cc1 [Compound No. 215, homopiperidin-1-yl-[1-imidazol-1-yl-1-[2-(2-phenoxyethoxy)phenyl]methylidene]amine] |  |  |  |  | 0.8 |  | 1.2
15 | c1ccc(OCCCOc2ccccc2C(=NN2CCCCCC2)n2ccnc2)cc1 [Compound No. 216, homopiperidin-1-yl-[1-imidazol-1-yl-1-[2-(3-phenoxypropoxy)phenyl]methylidene]amine] |  |  |  |  | 0.5 |  | 1.5
16 | FC(F)(F)Oc1ccccc1C(=NN1CCCCCC1)n1ccnc1 [Compound No. 219, homopiperidin-1-yl-[1-imidazol-1-yl-1-(2-trifluoromethoxyphenyl)methylidene]amine] |  |  |  |  | 0.6 |  | 1.1
17 | CCSc1ccccc1C(=NN1CCCCCC1)n1ccnc1 [Compound No. 220, [1-(2-ethylthiophenyl)-1-imidazol-1-ylmethylidene]homopiperidin-1-ylamine] |  |  |  |  | 0.5 |  | 1.1
18 | C=CC[C@@H]1/C=C(\C)C[C@H](C)C[C@H](OC)[C@H]2O[C@@](O)(C(=O)C(=O)N3CCCC[C@H]3C(=O)O[C@H](/C(C)=C/[C@@H]3CC[C@@H](O)[C@H](OC)C3)[C@H](C)[C@@H](O)CC1=O)[C@H](C)C[C@@H]2OC [FK506, tacrolimus, reference compound] |  |  |  |  | 1.0 |  | 1.0
